Assay results from the supplement of paper PMC4862054.

Key:
Settings in all cases: incubation time: 72 h
BT-474 [1] = assay: drug sensitivity score (DSS), CellTiter-Glo (DSS (AUC-based score)); higher = stronger drug effect (viability inhibition or cytotoxicity); extreme values may be limits of the assay
Outline: (§1)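 In 384-well plates, compound was laid out at 5 concentrations in 10-fold steps over a 10,000-fold range specific to each compound, and breast cancer cell lines were seeded on top in 20 µl suspension for a 72 h incubation. CellTox Green fluorescence and then CellTiter-Glo luminescence were read, and each plate was normalised to 0.1 % DMSO and a positive kill control. The drug sensitivity score was calculated from the area under the fitted dose-response curve.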

BT-549 [2] = assay: as above
Outline: as §1

CAL-120 [3] = assay: as above
Outline: as §1

CAL-148 [4] = assay: as above
Outline: as §1

CAL-51 [5] = assay: as above
Outline: as §1

CAL-85-1 [6] = assay: as above
Outline: as §1

DU-4475 [7] = assay: as above
Outline: as §1

HCC1143 [8] = assay: as above
Outline: as §1

HCC1599 [9] = assay: as above
Outline: as §1

HCC1937 [10] = assay: as above
Outline: as §1

HDQ-P1 [11] = assay: as above
Outline: as §1

Hs578T = assay: as above
Outline: as §1

MCF-10A [12] = assay: as above
Outline: as §1

MDA-MB-231 [13] = assay: as above
Outline: as §1

MDA-MB-436 = assay: as above
Outline: as §1

MDA-MB-453 [14] = assay: as above
Outline: as §1

MDA-MB-468 [15] = assay: as above
Outline: as §1

MFM-223 [16] = assay: as above
Outline: as §1

SK-BR-3 = assay: as above
Outline: as §1

BT-474 [17] = assay: drug sensitivity score (DSS), CellTox Green (DSS (AUC-based score)); higher = stronger drug effect (viability inhibition or cytotoxicity); extreme values may be limits of the assay
Outline: as §1

BT-549 [18] = assay: as above
Outline: as §1

CAL-120 [19] = assay: as above
Outline: as §1

CAL-148 [20] = assay: as above
Outline: as §1

CAL-51 [21] = assay: as above
Outline: as §1

CAL-85-1 [22] = assay: as above
Outline: as §1

DU-4475 [23] = assay: as above
Outline: as §1

HCC1143 [24] = assay: as above
Outline: as §1

HCC1599 [25] = assay: as above
Outline: as §1

HCC1937 [26] = assay: as above
Outline: as §1

HDQ-P1 [27] = assay: as above
Outline: as §1

MCF-10A [28] = assay: as above
Outline: as §1

MDA-MB-231 [29] = assay: as above
Outline: as §1

MDA-MB-453 [30] = assay: as above
Outline: as §1

MDA-MB-468 [31] = assay: as above
Outline: as §1

MFM-223 [32] = assay: as above
Outline: as §1

c1ccc([C@H]2CN3CCSC3=N2)cc1 [Levamisole]
drug sensitivity score (BT-474 [1]): 0 | drug sensitivity score (BT-549 [2]): 0 | drug sensitivity score (CAL-120 [3]): 0 | drug sensitivity score (CAL-148 [4]): 0 | drug sensitivity score (CAL-51 [5]): 0 | drug sensitivity score (CAL-85-1 [6]): 0 | drug sensitivity score (DU-4475 [7]): 0 | drug sensitivity score (HCC1143 [8]): 0 | drug sensitivity score (HCC1599 [9]): 0 | drug sensitivity score (HCC1937 [10]): 0 | drug sensitivity score (HDQ-P1 [11]): 0 | drug sensitivity score (Hs578T): 0 | drug sensitivity score (MCF-10A [12]): 0 | drug sensitivity score (MDA-MB-231 [13]): 0 | drug sensitivity score (MDA-MB-436): 0 | drug sensitivity score (MDA-MB-453 [14]): 0 | drug sensitivity score (MDA-MB-468 [15]): 0 | drug sensitivity score (MFM-223 [16]): 0 | drug sensitivity score (SK-BR-3): 0 | drug sensitivity score (BT-474 [17]): 0 | drug sensitivity score (BT-549 [18]): 0 | drug sensitivity score (CAL-120 [19]): 0 | drug sensitivity score (CAL-148 [20]): 0 | drug sensitivity score (CAL-51 [21]): 0 | drug sensitivity score (CAL-85-1 [22]): 0 | drug sensitivity score (DU-4475 [23]): 0 | drug sensitivity score (HCC1143 [24]): 0 | drug sensitivity score (HCC1599 [25]): 0 | drug sensitivity score (HCC1937 [26]): 0 | drug sensitivity score (HDQ-P1 [27]): 2.62 | drug sensitivity score (MCF-10A [28]): 0 | drug sensitivity score (MDA-MB-231 [29]): 1.47 | drug sensitivity score (MDA-MB-453 [30]): 1.72 | drug sensitivity score (MDA-MB-468 [31]): 0 | drug sensitivity score (MFM-223 [32]): 0
